In a melting point compilation (Tetko et al.; mined from patent text by program, amines drawn as free bases though some values may be those of a salt) one finds melting point data, which are given here for 87 compounds.

`COC(=O)c1nc(Cl)cc(Cl)c1N` showed a melting point of 127 to 128 °C.

`Cc1cc(-c2ccc(S(N)(=O)=O)cc2)n(-c2ccc(Cl)cc2)c1`: the melting point is 171 to 173 °C.

`O=C1CC2(CC=CC2)CC(=O)O1` registered a melting point of 64 to 65 °C.

Compound `CCOC(=O)COCc1nnc(S)o1` yielded a melting point of 101 to 103 °C.

`COC(=O)c1cc(Br)ccc1Cl`: the melting point lay in the range of 43 to 44 °C.

Compound `c1ccc2c(CC3CCCCC3)c[nH]c2c1` came in with a melting point of 71 to 73 °C.

The compound `COCCc1nc2c(N)nc3ccccc3c2n1CCCCN1CCCS1(=O)=O` gave a melting point of 156 to 158 °C.

Take `CCc1cc(C(=O)c2ccccc2Cl)c(NC=C[N+](=O)[O-])s1`: the melting point was in the range of 125 to 126 °C.

Consider `CC(C)COC(=O)N[C@@H](CC(C)C)C(=O)N[C@@H](C(C)C)[C@@H](O)c1c(-c2ccccc2)c1=O`, for which the melting point is 145 to 146 °C.

For the compound `CSc1nc(Oc2ccccc2)c(C(=O)O)c(Oc2ccccc2)n1`, the melting point fell in the range of 97 to 98 °C.

In the case of `CCOC(=O)C1=C(C)NC(C)=C(C(=O)OCC)C1c1ccccc1/C=C/C(=O)OC1CCCCC1C` (configuration not stated), the melting point lay within 165 to 166 °C.

Compound `CC(=CC(=O)OCCCCCCCCC(=O)O)CC1OCC(CC2OC2C(C)C(C)O)C(O)C1O` (configuration not stated) returned a melting point of 73 to 75 °C.

On to `Cn1cc(-c2ccc(Cl)cc2)c(=S)c(-c2cccc(C(F)(F)F)c2)c1`, for which the melting point was 239 to 242 °C.

In turn, `Cc1ccccc1C(=NC(=Nc1ccccc1)N1CCC(=O)CC1)Nc1ccc(F)cc1` yielded a melting point of 234 to 235 °C.

Compound `N#Cc1nn(-c2c(Cl)cc(C(F)(F)F)cc2Cl)c(N)c1-c1ccc2c(c1)OCO2` had a melting point of 222 °C.

The compound `Cc1n[nH]c([N+](=O)[O-])c1-c1ncc([N+](=O)[O-])n1C` displayed a melting point of 184 °C.

`Cc1cc(-n2cnnn2)ccc1[N+](=O)[O-]` registered a melting point of 166 to 168 °C.

Take `CCOCCOc1ccc(CN/C=C2\C(=O)NC(=O)c3ccc(Br)cc32)cc1O`: the melting point was 179 to 180 °C.

In turn, `COC(=O)c1c(OC)nc2ccc(Cl)cc2c1-c1ccccc1Cl` returned a melting point of 151 to 152 °C.

Take `O=C(NC(=O)c1cccc(C(F)(F)F)c1)NC1CN2CCC1CC2` (configuration not stated): the melting point was in the range of 197 to 200 °C.

Turning to `CS(=O)(=O)c1ccccc1CNC(=O)[C@@H]1CCCN(c2cccc3c2C(=O)N(Cc2ccncc2)C3=O)C1`, the melting point lay within 101 to 102 °C.

With `COc1ccc(NCCSC#N)c([N+](=O)[O-])c1`, the melting point lay in the range of 116 to 118 °C.

Regarding `CNC(=O)CN1CCC2=C(C1)c1c(O)cc(C(C)C)cc1OC2(C)C`, the melting point fell in the range of 178 to 190 °C.

As to `CC(C)Oc1cccc(C(=O)N2CCN(C(=O)CNC3CCN(Cc4ccccc4)CC3)C(c3ccc(Cl)c(Cl)c3)C2)c1` (racemic), the melting point was in the range of 58 to 61 °C.

Take `O=S(=O)(Nc1c(F)c(F)nc(F)c1F)C(F)(F)F`: the melting point lay in the range of 69 to 70 °C.

The compound `Cn1c(-c2ccccc2)cc2cc(N)ccc21` yielded a melting point of 108 to 110 °C.

`c1ccc(Nc2ccnc3[nH]cnc23)cc1` gave a melting point of 251 to 252 °C.

`CC(=O)Nc1ccc2c(c1)S(=O)(=O)N=C(NC(C)C)N2`: the melting point was in the range of 260 to 262 °C.

`COc1ccc(N2C3CCC(C(=O)C3)C2c2ccc(Cl)cc2)cc1OC` (configuration not stated) displayed a melting point of 42 to 43 °C.

In turn, `CN(C1CCN(Cc2csnn2)CC1)S(=O)(=O)c1ccc(Nc2nccc(Nc3ccc(F)c(F)c3)n2)cc1` gave a melting point of 172 to 173 °C.

Regarding `COC(=O)[C@@H]1CSCc2c(O[Si](C)(C)C(C)(C)C)cc(OC)c(C)c2C(=O)OC[C@H](O)C(=O)N1`, the melting point fell in the range of 237 to 240 °C.

Take `O=c1[nH]c2scc(-c3ccccc3)c2[nH]c1=O`: the melting point is > 300 °C.

With `CC1=CC(OC(=O)c2ccc([N+](=O)[O-])cc2Cl)C(O)C(C)(C)CC1=O` (configuration not stated), the melting point lay in the range of 108 to 110 °C.

On to `COC(=O)c1cc(N2C(=O)C(=O)N(C(C)C)C2=O)c(F)cc1Cl`, for which the melting point was in the range of 106 to 108 °C.

Compound `CC(C)(C)OC(=O)N1C[C@@H](CC(=O)C(=[N+]=[N-])C(=O)OCc2ccc([N+](=O)[O-])cc2)[C@H]2NC(=O)[C@H]21` came in with a melting point of 132 to 134 °C.

The compound `COc1nc(N2CCOCC2)cnc1NS(=O)(=O)c1cccc(Cl)c1Cl` yielded a melting point of 167 to 168 °C.

As to `Cc1ccsc1C(=O)NCCCSc1ccncc1`, the melting point fell in the range of 104 to 105 °C.

In the case of `CCOC(=O)C(=O)Nc1cccc([N+](=O)[O-])c1C#N`, the melting point lay in the range of 111 to 113 °C.

Turning to `CCOC(=O)CC[C@H](NC(=O)c1ccc(CCCCc2c(N)nc(N)nc2O)cc1)C(=O)OCC`, the melting point was in the range of 75 to 76 °C.

In the case of `COc1cc2c(cc1OC)-c1c(C#N)sc(=O)n1CC2`, the melting point was 205 to 207 °C.

In the case of `O=c1[nH]c2cc(Cl)cc(OCCNCc3ccsc3)c2[nH]1`, the melting point was > 250 °C.

As to `Cn1c(=O)c(-c2ccc(Cl)cc2Cl)cc2c3cc(-c4csc(N)n4)ccc3n(C)c21`, the melting point fell in the range of 272 to 273 °C.

With `OCCCCCCOc1ccc(OCc2ccccc2)cc1`, the melting point is 94 to 97 °C.

On to `CCN1CCN(c2nccc(Oc3ccc(NC(=O)c4cc(F)cc(N5CCCCC5)c4)c4ccccc34)n2)CC1`, for which the melting point is 86 to 87 °C.

As for `CC(C)(O)Cn1cnc2c(N)nc3cc(Br)ccc3c21`, the melting point is > 250 °C.

Compound `CC(C)CN1CCC(CNC(=O)c2cc(Cl)c(N)[nH]c2=O)CC1` displayed a melting point of 128 to 133 °C.

Consider `COC(=O)c1ccc(C(O)COc2ccc3c(c2)C(C)(C)CCC3(C)C)cc1` (configuration not stated), for which the melting point lay within 92 to 96 °C.

Compound `COc1ccncc1Nc1nc(N2CCOCC2)nc(-n2c(C(F)F)nc3ccccc32)n1` yielded a melting point of 161 to 163 °C.

Take `CC1=C(C(=O)OCCC#N)C(c2cccc([N+](=O)[O-])c2)C(C(=O)OCCCN2CCC(c3ccccc3)(c3ccccc3)CC2)=C(C)N1` (configuration not stated): the melting point was 158 to 160 °C.

`Cc1cc(S(N)(=O)=O)ccc1NC(=O)Cc1ccc(Oc2cc(Cl)cc(C#N)c2)c(Br)c1` yielded a melting point of 215 to 216 °C.

`O=C(O)c1ncn2c1[C@@H]1CCN1C(=O)c1c(Cl)cccc1-2`: the melting point was in the range of 244 to 245 °C.

The compound `CNc1nc(-c2cccc([N+](=O)[O-])c2)c2cc(OC)c(OC)cc2n1` gave a melting point of 218 to 220 °C.

`CCN(c1nc(C)cc(C(=O)c2ccc(F)cc2)n1)c1ccc(C(C)C)cc1Br`: the melting point was 70 °C.

In the case of `NS(=O)(=O)Oc1ccc([N+](=O)[O-])c(C(F)(F)F)c1`, the melting point lay within 95 to 97 °C.

In the case of `CCOC(=O)c1csc(-c2ccc3cc(O)c(C45CC6CC(CC(C6)C4)C5)cc3c2)c1`, the melting point lay in the range of 199 to 200 °C.

Turning to `OCc1ccc(-c2ccc3[nH]cc(C[C@H]4CCCN4)c3c2)cc1`, the melting point was 65 to 69 °C.

In turn, `Nc1cc(Br)nc(C(=O)O)c1Cl` came in with a melting point of 182 to 183 °C.

`C=CCOC(=O)c1ccc(OC(=O)c2ccc(OC)c(C34CC5CC(CC(C5)C3)C4)c2)c(C(C)(C)C)c1` came in with a melting point of 113 to 115 °C.

For `C=C(COc1ccccc1C=NO)c1ccccc1`, the melting point was 61 to 62 °C.

Compound `CC(C)(C)OC(=O)ON=C(C#N)c1cccc2ccccc12` came in with a melting point of 90 to 92 °C.

Consider `CCOC(=O)N1CCN(c2nc(C)nc3c2OCC(=O)N3CC(N)=O)CC1`, for which the melting point was 225 to 227 °C.

With `Cn1c(=O)n(Cc2ccccc2)c(=O)c2cc(I)ccc21`, the melting point fell in the range of 149 to 150 °C.

`COc1ccc(-c2nc(NC(=N)N3CCN(C)CC3)sc2-c2ccc(OC)cc2)cc1` yielded a melting point of 161 to 162 °C.

For the compound `C=CCNS(=O)(=O)c1ccc(Br)cc1`, the melting point was in the range of 63 to 65 °C.

Compound `CN(C)c1ccc(NC(=O)N(CC2CCCCC2)C[C@H]2CCCC[C@H]2CN(CC2CCCCC2)C(=O)Nc2ccc(N(C)C)cc2)cc1` showed a melting point of 102 to 106 °C.

Consider `CN(C)C(=O)Nc1ccc(Oc2cccc(C(F)(F)F)c2)c(Cl)c1`, for which the melting point amounted to 166 °C.

As for `NC1=Nc2ccc(OC(F)(F)F)cc2CS1`, the melting point lay within 115 to 118 °C.

In turn, `O=C1OC(=Cc2ccc(Cl)c([N+](=O)[O-])c2)c2ccccc21` displayed a melting point of 198 to 204 °C.

With `CN1CCC2(CC1)SC(c1ccc(Cl)cc1)c1ccccc12` (configuration not stated), the melting point is 121 to 123 °C.

Compound `CC(C)=CCN1CCc2c(sc(N)c2C(=O)c2ccccc2)C1` showed a melting point of 76 to 78 °C.

`Cc1ccc(N(Cc2ccccc2)c2ccccc2)cc1`: the melting point was in the range of 85 to 86 °C.

Turning to `CCCCCC(Cc1cnc(SCCC)n1Cc1ccccc1Cl)C(=O)O` (configuration not stated), the melting point was in the range of 122 to 124 °C.

Consider `O=C1Cc2ccccc2N1c1ccsc1`, for which the melting point fell in the range of 62 to 67 °C.

For `Cc1ccc2c(c1)C=Cc1cc(C)ccc1C2c1cn(Cc2nc(C(=O)O)cs2)c(=O)[nH]c1=S`, the melting point lay within 200 to 205 °C.

Regarding `CC(C)C=CC1(C(F)(F)F)OCC(=O)Nc2ccc(F)cc21` (configuration not stated), the melting point fell in the range of 145 to 156 °C.

Turning to `COn1c(Br)c(C#N)c(Br)c1-c1ccc(Cl)cc1`, the melting point was in the range of 195 to 197 °C.

With `CC(C)c1nc(CCOC2=CCCCCCCCC2)n(C)c1Sc1cc(Cl)cc(Cl)c1`, the melting point was 94 to 96 °C.

The compound `N#Cc1cnn2c1N(C(=O)CCl)CC=C2c1cccc(Cl)c1` yielded a melting point of 196 to 198 °C.

The compound `COc1ccc2cc([C@H](C)C(=O)OCC(=O)N(C)CC(=O)NCCO[N+](=O)[O-])ccc2c1` returned a melting point of 79 to 81 °C.

Compound `COc1ccc(N2CCN(c3ccc(NC(N)=S)cc3)CC2)cc1` had a melting point of 265 °C.

On to `Cc1nc2ccc(C(=O)O)nc2n1Cc1ccc(Cl)cc1Cl`, for which the melting point is > 260 °C.

Take `Cc1c(O)c(=O)ccn1CC(=O)O`: the melting point was > 230 °C.

For the compound `CC(O)=C(C#N)C(=O)c1ccc(F)cc1`, the melting point was 65 to 67 °C.

As to `Cc1cc(N2C(=O)N(CCCCCN3C(=O)N(c4ccc(C#N)c(C)c4)C(=O)C3(C)C)C(C)(C)C2=O)ccc1C#N`, the melting point lay within 148 to 149 °C.

Compound `CCc1nc(/C=C/c2cn(-c3ccccc3)nc2OCc2ccc(OCc3nc(-c4cccc(-c5nnn[nH]5)c4)oc3C)c(OC)c2)cs1` displayed a melting point of 144 to 147 °C.

As for `COc1cc(C(=O)C(F)(F)F)ccc1OCCCN1CCC(c2noc3cc(F)ccc23)CC1`, the melting point lay in the range of 78 to 80 °C.

`CCCCC1(CCn2ccnc2)SCCS1` had a melting point of 105 to 108 °C.
